Measurements taken from PubChem BioAssay (NCI).
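Exposure lasted 48 hours, with cells grown in 96-well plates and compounds tested at five concentrations. TGI denotes the concentration required for complete inhibition of growth.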

Assays:
Test in all cases: growth of human tumour cells (NCI), 48 h
[1] = tested on: 786-0 renal
[2] = tested on: A498 renal
[3] = tested on: A549 NSCLC
[4] = tested on: ACHN renal
[5] = tested on: CAKI-1 renal
[6] = tested on: CCRF-CEM leukemia
[7] = tested on: COLO 205 colon
[8] = tested on: DLD-1 colon
[9] = tested on: DMS 114 small cell lung
[10] = tested on: DMS 273 small cell lung
[11] = tested on: EKVX NSCLC
[12] = tested on: HCC-2998 colon
[13] = tested on: HCT-116 colon
[14] = tested on: HCT-15 colon
[15] = tested on: HL-60(TB) leukemia
[16] = tested on: HOP-62 NSCLC
[17] = tested on: HOP-92 NSCLC
[18] = tested on: HT29 colon
[19] = tested on: IGROV1 ovarian
[20] = tested on: K-562 leukemia
[21] = tested on: KM12 colon
[22] = tested on: KM20L2 colon
[23] = tested on: LOX IMVI melanoma
[24] = tested on: LXFL 529 NSCLC
[25] = tested on: M14 melanoma
[26] = tested on: M19-MEL melanoma
[27] = tested on: MALME-3M melanoma
[28] = tested on: MOLT-4 leukemia
[29] = tested on: NCI-H23 lung
[30] = tested on: NCI-H522 lung
[31] = tested on: OVCAR-3 ovarian
[32] = tested on: OVCAR-4 ovarian
[33] = tested on: OVCAR-8 ovarian
[34] = tested on: RPMI-8226 leukemia
[35] = tested on: RXF 393 renal
[36] = tested on: RXF-631 renal
[37] = tested on: SF-268 CNS
[38] = tested on: SF-295 CNS
[39] = tested on: SF-539 CNS
[40] = tested on: SK-MEL-2 melanoma
[41] = tested on: SK-MEL-28 melanoma
[42] = tested on: SK-MEL-5 melanoma
[43] = tested on: SN12C renal
[44] = tested on: SNB-19 CNS
[45] = tested on: SNB-75 CNS
[46] = tested on: SR leukemia
[47] = tested on: SW-620 colon
[48] = tested on: TK-10 renal
[49] = tested on: U251 CNS
[50] = tested on: UACC-257 melanoma
[51] = tested on: UACC-62 melanoma
[52] = tested on: XF 498 CNS
[53] = tested on: HOP-18 NSCLC
[54] = tested on: NCI-H226 lung
[55] = tested on: NCI-H460 lung
[56] = tested on: OVCAR-5 ovarian
[57] = tested on: SK-OV-3 ovarian
[58] = tested on: SNB-78 CNS
[59] = tested on: UO-31 renal

COC(=O)c1cc2ccccc2c2nc3ccccc3c(Cl)c12
TGI [1]: > 100 µM
TGI [2]: > 100 µM
TGI [3]: > 100 µM
TGI [4]: > 100 µM
TGI [5]: > 100 µM
TGI [6]: > 100 µM
TGI [7]: > 100 µM
TGI [8]: > 100 µM
TGI [9]: > 100 µM
TGI [10]: > 100 µM
TGI [11]: > 100 µM
TGI [12]: > 100 µM
TGI [13]: > 100 µM
TGI [14]: > 100 µM
TGI [15]: > 100 µM
TGI [16]: > 100 µM
TGI [17]: > 100 µM
TGI [18]: > 100 µM
TGI [19]: > 100 µM
TGI [20]: > 100 µM
TGI [21]: > 100 µM
TGI [22]: 29 µM
TGI [23]: > 100 µM
TGI [24]: > 100 µM
TGI [25]: > 100 µM
TGI [26]: > 100 µM
TGI [27]: > 100 µM
TGI [28]: > 100 µM
TGI [29]: > 100 µM
TGI [30]: > 100 µM
TGI [31]: > 100 µM
TGI [32]: > 100 µM
TGI [33]: > 100 µM
TGI [34]: > 100 µM
TGI [35]: > 100 µM
TGI [36]: > 100 µM
TGI [37]: > 100 µM
TGI [38]: > 100 µM
TGI [39]: > 100 µM
TGI [40]: > 100 µM
TGI [41]: > 100 µM
TGI [42]: > 100 µM
TGI [43]: > 100 µM
TGI [44]: > 100 µM
TGI [45]: > 100 µM
TGI [46]: > 100 µM
TGI [47]: > 100 µM
TGI [48]: > 100 µM
TGI [49]: > 100 µM
TGI [50]: > 100 µM
TGI [51]: > 100 µM
TGI [52]: > 100 µM

COc1cccc2c1[C@H]1OC(=O)NC1CCCCC2 (stereo not given in full)
TGI [1]: > 100 µM
TGI [2]: > 100 µM
TGI [3]: > 100 µM
TGI [4]: > 100 µM
TGI [5]: > 100 µM
TGI [6]: > 100 µM
TGI [7]: > 100 µM
TGI [8]: > 100 µM
TGI [9]: > 100 µM
TGI [10]: > 100 µM
TGI [11]: > 100 µM
TGI [12]: > 100 µM
TGI [13]: > 100 µM
TGI [14]: > 100 µM
TGI [15]: > 100 µM
TGI [53]: > 100 µM
TGI [16]: > 100 µM
TGI [18]: > 100 µM
TGI [19]: > 100 µM
TGI [20]: > 100 µM
TGI [21]: > 100 µM
TGI [22]: > 100 µM
TGI [23]: > 100 µM
TGI [24]: > 100 µM
TGI [25]: > 100 µM
TGI [26]: > 100 µM
TGI [27]: > 100 µM
TGI [28]: > 100 µM
TGI [54]: > 100 µM
TGI [29]: > 100 µM
TGI [55]: > 100 µM
TGI [30]: > 100 µM
TGI [31]: > 100 µM
TGI [32]: > 100 µM
TGI [56]: > 100 µM
TGI [33]: > 100 µM
TGI [34]: > 100 µM
TGI [35]: > 100 µM
TGI [37]: > 100 µM
TGI [38]: > 100 µM
TGI [39]: > 100 µM
TGI [40]: > 100 µM
TGI [41]: > 100 µM
TGI [42]: > 100 µM
TGI [57]: > 100 µM
TGI [43]: > 100 µM
TGI [44]: > 100 µM
TGI [45]: > 100 µM
TGI [58]: > 100 µM
TGI [47]: > 100 µM
TGI [48]: > 100 µM
TGI [49]: > 100 µM
TGI [50]: > 100 µM
TGI [51]: > 100 µM
TGI [59]: > 100 µM

Cc1csc(CCC(N)C(=O)O)n1 (stereo not given)
TGI [1]: > 100 µM
TGI [3]: > 100 µM
TGI [4]: > 100 µM
TGI [5]: > 100 µM
TGI [6]: > 100 µM
TGI [7]: > 100 µM
TGI [8]: > 100 µM
TGI [10]: > 100 µM
TGI [11]: > 100 µM
TGI [12]: > 100 µM
TGI [13]: > 100 µM
TGI [14]: > 100 µM
TGI [53]: > 100 µM
TGI [17]: > 100 µM
TGI [18]: > 100 µM
TGI [19]: > 100 µM
TGI [20]: > 100 µM
TGI [21]: > 100 µM
TGI [23]: > 100 µM
TGI [24]: > 100 µM
TGI [25]: > 100 µM
TGI [26]: > 100 µM
TGI [27]: > 100 µM
TGI [28]: > 100 µM
TGI [54]: > 100 µM
TGI [29]: > 100 µM
TGI [55]: > 100 µM
TGI [30]: > 100 µM
TGI [31]: > 100 µM
TGI [33]: > 100 µM
TGI [34]: > 100 µM
TGI [35]: > 100 µM
TGI [38]: > 100 µM
TGI [39]: > 100 µM
TGI [41]: > 100 µM
TGI [42]: > 100 µM
TGI [57]: > 100 µM
TGI [43]: > 100 µM
TGI [45]: > 100 µM
TGI [58]: > 100 µM
TGI [47]: > 100 µM
TGI [48]: > 100 µM
TGI [49]: > 100 µM
TGI [50]: > 100 µM
TGI [51]: > 100 µM
TGI [59]: > 100 µM

O=C(Nc1ccc(Cl)c(Cl)c1)C1C(=O)N(c2ccc(Cl)c(Cl)c2)C(=O)/C1=N\O (stereo not given)
TGI [1]: > 100 µM
TGI [2]: > 100 µM
TGI [3]: > 100 µM
TGI [4]: > 100 µM
TGI [5]: > 100 µM
TGI [6]: > 100 µM
TGI [7]: 41.9 µM
TGI [8]: > 100 µM
TGI [9]: 83.7 µM
TGI [10]: > 100 µM
TGI [11]: > 100 µM
TGI [12]: > 100 µM
TGI [13]: > 100 µM
TGI [14]: > 100 µM
TGI [53]: > 100 µM
TGI [16]: > 100 µM
TGI [17]: > 100 µM
TGI [18]: > 100 µM
TGI [19]: > 100 µM
TGI [20]: > 100 µM
TGI [22]: > 100 µM
TGI [23]: 87.7 µM
TGI [24]: > 100 µM
TGI [25]: 53.8 µM
TGI [26]: > 100 µM
TGI [27]: > 100 µM
TGI [28]: > 100 µM
TGI [54]: > 100 µM
TGI [29]: > 100 µM
TGI [30]: > 100 µM
TGI [31]: > 100 µM
TGI [32]: > 100 µM
TGI [56]: > 100 µM
TGI [33]: > 100 µM
TGI [34]: > 100 µM
TGI [37]: > 100 µM
TGI [38]: > 100 µM
TGI [39]: > 100 µM
TGI [40]: > 100 µM
TGI [41]: 82.8 µM
TGI [42]: > 100 µM
TGI [57]: > 100 µM
TGI [43]: > 100 µM
TGI [44]: > 100 µM
TGI [45]: > 100 µM
TGI [58]: > 100 µM
TGI [47]: > 100 µM
TGI [48]: > 100 µM
TGI [49]: > 100 µM
TGI [50]: > 100 µM
TGI [51]: > 100 µM
TGI [59]: > 100 µM
